Experiments:
[1] = test system: MRC5; test: Cytotoxicity against human MRC5 cells assessed as inhibition of cell viability at >1000 uM after 24 hrs by MTT assay; assay type: cell-based; settings: mrc5, 24 h
[2] = Cytotoxicity against human MRC5 cells assessed as inhibition of cell viability after 24 hrs by MTT assay; assay type: cell-based
[3] = test system: Human alphaherpesvirus 3; test: Antiviral activity against Varicella zoster virus Ellen infected in human MRC5 cells assessed as inhibition of viral replication by viral reduction plaque assay; assay type: functional, organism-based; settings: Human alphaherpesvirus 3, Ellen
[4] = Antiviral coefficient, ratio of CC50 for human MRC5 cells to IC50 for Varicella zoster virus Ellen infected in human MRC5 cells; assay type: functional
[5] = Antiviral coefficient, ratio of CC90 for human MRC5 cells to IC90 for Varicella zoster virus Ellen infected in human MRC5 cells; assay type: functional
[6] = test system: MRC5; test: Effect on CDC27 gene expression in human MRC5 cells infected with Varicella zoster virus Ellen at 100 uM after 24 hrs by DNA microarray analysis; assay type: functional
[7] = test system: MRC5; test: Effect on CACNB4 gene expression in human MRC5 cells infected with Varicella zoster virus Ellen at 100 uM after 24 hrs by DNA microarray analysis; assay type: functional
[8] = test system: MRC5; test: Effect on SLC20A2 gene expression in human MRC5 cells infected with Varicella zoster virus Ellen at 100 uM after 24 hrs by DNA microarray analysis; assay type: functional
[9] = test system: MRC5; test: Effect on KCNS3 gene expression in human MRC5 cells infected with Varicella zoster virus Ellen at 100 uM after 24 hrs by DNA microarray analysis; assay type: functional
[10] = test system: MRC5; test: Effect on DDX27 gene expression in human MRC5 cells infected with Varicella zoster virus Ellen at 100 uM after 24 hrs by DNA microarray analysis; assay type: functional
[11] = test system: MRC5; test: Effect on ZMYND15 gene expression in human MRC5 cells infected with Varicella zoster virus Ellen at 100 uM after 24 hrs by DNA microarray analysis; assay type: functional
[12] = test system: MRC5; test: Effect on PSME1 gene expression in human MRC5 cells infected with Varicella zoster virus Ellen at 100 uM after 24 hrs by DNA microarray analysis; assay type: functional
[13] = test system: MRC5; test: Effect on KRT5 gene expression in human MRC5 cells infected with Varicella zoster virus Ellen at 100 uM after 24 hrs by DNA microarray analysis; assay type: functional
[14] = test system: MRC5; test: Effect on ACTA1 gene expression in human MRC5 cells infected with Varicella zoster virus Ellen at 100 uM after 24 hrs by DNA microarray analysis; assay type: functional
[15] = test system: MRC5; test: Effect on CXCL1 gene expression in human MRC5 cells infected with Varicella zoster virus Ellen at 100 uM after 24 hrs by DNA microarray analysis; assay type: functional
[16] = test system: MRC5; test: Effect on EIF2B1 gene expression in human MRC5 cells infected with Varicella zoster virus Ellen at 100 uM after 24 hrs by DNA microarray analysis; assay type: functional
[17] = test system: MRC5; test: Effect on TPM2 gene expression in human MRC5 cells infected with Varicella zoster virus Ellen at 100 uM after 24 hrs by DNA microarray analysis; assay type: functional
[18] = test system: MRC5; test: Effect on ADCY8 gene expression in human MRC5 cells infected with Varicella zoster virus Ellen at 100 uM after 24 hrs by DNA microarray analysis; assay type: functional
[19] = test system: MRC5; test: Effect on RPL37A gene expression in human MRC5 cells infected with Varicella zoster virus Ellen at 100 uM after 24 hrs by DNA microarray analysis; assay type: functional
[20] = test system: MRC5; test: Effect on SNRPB gene expression in human MRC5 cells infected with Varicella zoster virus Ellen at 100 uM after 24 hrs by DNA microarray analysis; assay type: functional
[21] = test system: MRC5; test: Effect on MRPS18B gene expression in human MRC5 cells infected with Varicella zoster virus Ellen at 100 uM after 24 hrs by DNA microarray analysis; assay type: functional
[22] = test system: MRC5; test: Effect on MT1M gene expression in human MRC5 cells infected with Varicella zoster virus Ellen at 100 uM after 24 hrs by DNA microarray analysis; assay type: functional
[23] = test system: MRC5; test: Effect on SAP18 gene expression in human MRC5 cells infected with Varicella zoster virus Ellen at 100 uM after 24 hrs by DNA microarray analysis; assay type: functional
[24] = test system: MRC5; test: Effect on ACVR1 gene expression in human MRC5 cells infected with Varicella zoster virus Ellen at 100 uM after 24 hrs by DNA microarray analysis; assay type: functional
[25] = test system: MRC5; test: Effect on RNF43 gene expression in human MRC5 cells infected with Varicella zoster virus Ellen at 100 uM after 24 hrs by DNA microarray analysis; assay type: functional

SMILES: CC(C)CC(=O)[C@@H](O)Cc1ccccc1
- Activity [1]: Toxic
- CC50 at 24 h [2]: 765 µM
- CC90 at 24 h [2]: 3880 µM
- IC50 [3]: 58 µM
- IC90 [3]: 109 µM
- Ratio CC50/IC50 [4]: 13.2
- Ratio [5]: 35.6
- fold change (FC) [6]: 0.823
- fold change (FC) [7]: 0.741
- fold change (FC) [8]: 0.675
- fold change (FC) [9]: 0.673
- fold change (FC) [10]: 0.642
- fold change (FC) [11]: 0.577
- fold change (FC) [12]: 0.576
- fold change (FC) [13]: 0.566
- fold change (FC) [14]: 0.545
- fold change (FC) [15]: 0.544
- fold change (FC) [16]: -1.402
- fold change (FC) [17]: -1.336
- fold change (FC) [18]: -1.328
- fold change (FC) [19]: -1.282
- fold change (FC) [20]: -1.193
- fold change (FC) [21]: -1.168
- fold change (FC) [22]: -1.153
- fold change (FC) [23]: -1.128
- fold change (FC) [24]: -1.105
- fold change (FC) [25]: -1.092

SMILES: Nc1nc2c(ncn2COCCO)c(=O)[nH]1 [ACYCLOVIR]
- IC50 [3]: 13 µM

SMILES: Nc1nc(O)c2ncn(CCC(CO)CO)c2n1 [PENCICLOVIR]
- IC50 [3]: 16 µM
